Assay results from article PMC6680932, “Structure–Antioxidant–Antiproliferative Activity Relationships of Natural C7 and C7–C8 Hydroxylated Flavones and Flavanones” (Antioxidants, 2019).

Experiments:
[1] = DPPH free radical scavenging activity assay; details: 10 min, 517 nm; mean ± SD
Procedure: The antioxidant capacity of flavonoids was measured in three separate tests: ABTS, DPPH, and ferric ion reducing antioxidant power (FRAP) assays (ABTS, DPPH, and FRAP reagents from Sigma-Aldrich). All tested compounds were dissolved in DMSO. All determinations were performed in triplicate. Standard curves were prepared for all assays using different concentrations of Trolox (6-hydroxy-2,5,7,8-tetramethylchroman-2-carboxylic acid) (Sigma-Aldrich). Trolox is a water-soluble analogue of vitamin E with high antioxidant activity, commonly used as a control and a reference in studies of antioxidant activity. The results were expressed as the equivalent of μmol Trolox per μmol of the test compound. The absorbance was measured using a UV-2401 PC spectrophotometer (Shimadzu, Kyoto, Japan). Concentrations of the tested samples were in the range from 50 µg/mL to 10 mg/mL.
The DPPH (2,2-diphenyl-1-picrylhydrazyl) radical scavenging activity of samples was determined according to the method described by Yen and Chen with some modifications. Samples (0.1 mL) of known concentration were mixed in polystyrene cuvettes with 2 mL of 0.04 mM DPPH in ethanol and 0.4 mL of ethanol. The absorbance was measured after 10 min at λ = 517 nm. The DPPH reagent was freshly prepared before each experiment.

LoVo (colon cancer) = test: Antiproliferative activity in vitro, SRB assay; assay type: cell-based, human; details: Homo sapiens, LoVo, 72 h, 72 h exposure, SRB; read-out: IC50 ± SD LoVo
Procedure: (§1) The antiproliferative studies were performed in vitro using human cancer cell lines—MV-4-11 (biphenotypic B myelomonocytic leukemia), MCF7 (breast carcinoma), LoVo (colon cancer), LoVo/DX (colon cancer doxorubicin-resistant), and DU 145 (prostate cancer)—and normal human cell lines—MCF 10A (breast cells) and HLMEC (lung microvascular endothelial cells). The cell lines MV-4-11, LoVo, DU 145, and MCF 10A were obtained from the American Type Culture Collection (Rockville, Maryland, USA), MCF7 from the European Collection of Authenticated Cell Cultures (ECACC, Salisbury, UK), LoVo/DX courtesy of Professor E. Borowski (Technical University of Gdansk, Poland), and HLMECs (which had been already immortalized by transfection with pSV3-neoplasmid containing large T-antigen gene) were the kind gift of Professor Claudine Kieda (Center for Molecular Biophysics, Orleans, France). The cell lines are being maintained in the Hirszfeld Institute of Immunology and Experimental Therapy, Polish Academy of Sciences (HIIET, PAS), Wroclaw, Poland. All cell lines were grown at 37 °C with 5% CO2 humidified atmosphere. The MV-4-11 cells were cultured in RPMI 1640 medium with GlutaMAX (Gibco, Scotland, UK), supplemented with 1 mM sodium pyruvate and 10% fetal bovine serum (both from Sigma-Aldrich, Poznan, Poland). The MCF7 cells were cultured in Eagle medium (HIIET, PAS, Wroclaw, Poland) supplemented with 2 mM L-glutamine, 10% fetal bovine serum, 1% nonessential amino acid solution, and 0.8 mg/L of insulin (all from Sigma-Aldrich, Poznan, Poland). The LoVo and LoVo/DX cells were cultured in a 1:1 (v/v) mixture of RPMI 1640 and Opti-MEM (both HIIET, PAS, Wroclaw, Poland), supplemented with 1 mM sodium pyruvate, 2 mM L-glutamine, and 5% fetal bovine serum (all from Sigma-Aldrich, Poznan, Poland). For LoVo/DX cells, additionally 10 µg/100 mL of doxorubicin (Accord Healthcare) was added to the medium. DU 145 cells were cultured in Eagle medium (HIIET, PAS, Wroclaw, Poland) supplemented with 1 mM sodium pyruvate, 4 mM L-glutamine, and 10% fetal bovine serum (all from Sigma-Aldrich, Poznan, Poland). The MCF 10A cells were cultured in the F-12 nutrient mixture (Gibco, Scotland, UK), supplemented with 5% horse serum (Gibco, Scotland, UK), 0.05 μg/mL of cholera toxin (Vibrio cholerae), 0.5 μg/mL of hydrocortisone, 10 μg/mL of insulin, and 20 ng/mL of human epidermal growth factor (all from Sigma-Aldrich, Poznan, Poland). The HLMEC cells were cultured in the RPMI 1640 medium (HIIET, PAS, Wroclaw, Poland) with the addition of 2 mM L-glutamine (Sigma-Aldrich, Poznan, Poland) and 10% fetal bovine serum (GE Healthcare). All culture media were supplemented with 100 units/mL penicillin (Polfa Tarchomin S.A., Warsaw, Poland) and 100 µg/mL streptomycin (Sigma-Aldrich, Poznan, Poland). Twenty-four hours before addition of the tested agents, the cells were plated in 96-well plates (Sarstedt, Germany) at a density of 1 × 10^4 (1 × 10^3 for HLMEC and 0.75 × 10^4 for MCF7) cells per well in 100 μL of culture medium.
(§2) Tested compounds were dissolved in DMSO and then diluted in a 1:1 (v/v) mixture of RPMI 1640 (HIIET, PAS, Wroclaw, Poland) and Opti-MEM (Gibco, Scotland, UK) medium supplemented with 2 mM L-glutamine (Sigma-Aldrich, Poznan, Poland), 5% fetal bovine serum (GE Healthcare), 100 units/mL penicillin (Polfa Tarchomin S.A., Warsaw, Poland), and 100 µg/mL streptomycin (Sigma-Aldrich, Poznan, Poland). The antiproliferative effects of the flavonoids were examined after 72 h of exposure of the cultured cells to varying concentrations of the tested agents (from 0.1 to 100 μg/mL) using the MTT (for MV-4-11 cells) or SRB assay described below. Cisplatin (chemotherapy drug used to treat a number of cancers) was used as a positive control. The results are presented as an inhibitory concentration 50 (IC50), which is the concentration of the tested agent that inhibits proliferation of the cell population by 50%. IC50 values for each experiment were calculated separately. […]

[2] = test system: HLMEC (lung microvascular endothelial cells); test: Antiproliferative activity in vitro, SRB assay; assay type: cell-based, human; details: Homo sapiens, Endothelial cell; 72 h exposure, SRB; normal cell line; read-out: IC50 ± SD HLMEC
Procedure: as §1, §2

[3] = Stability of flavonoids in DMSO (control), HPLC; assay type: physicochemical; details: 3 h of incubation
Procedure: Flavonoids were dissolved (as described in Section 2.4) to the concentration of 100 µg/mL. The solutions corresponding to the solutions before the administration to the cell cultures were incubated in 96-well plates for 3 h and transferred to microtubes containing 400 µL of cold methanol (−20 °C) and kept at −20 °C for 1 h. After centrifugation at 12,000× g for 10 min, samples were analyzed by HPLC. Control experiments were also carried out to determine the stability of flavonoids in DMSO under analogous conditions.

[4] = test system: LoVo/DX (colon cancer doxorubicin-resistant); test: Antiproliferative activity in vitro, SRB assay; assay type: cell-based, human; details: Homo sapiens, LoVo/DX, 72 h exposure, read-out: IC50 ± SD LoVo/DX
[5] = test system: MV-4-11 (biphenotypic B myelomonocytic leukemia); test: Antiproliferative activity in vitro, MTT assay; assay type: cell-based, human; details: Homo sapiens, MV4-11, 72 h exposure, read-out: IC50 ± SD MV-4-11

IC50 (LoVo (colon cancer))	compound observed after incubation in DMSO [3]	IC50 [4]	IC50 [5]	Structure (SMILES)	TEAC DPPH [1]	IC50 [2]
235 ± 57.1 µM	over 99%	–	–	O=c1cc(-c2ccc(O)cc2)oc2c(O)c(O)cc(O)c12 [Compound 10, 8-hydroxyapigenin]	5.560 ± 0.121 µmol trolox per µmol of tested	122 ± 14.4 µM
13.8 ± 1.38 µM	over 99%	11.6 ± 1.35 µM	8.18 ± 2.76 µM	O=c1cc(-c2ccc(O)cc2)oc2cc(O)cc(O)c12 [Compound 2, apigenin]	0.005 ± 0.002 µmol trolox per µmol of tested	14.1 ± 0.91 µM
121 ± 4.3 µM	over 99%	129 ± 9.74 µM	146 ± 19.1 µM	O=C1C[C@@H](c2ccc(O)cc2)Oc2cc(O)cc(O)c21 [Compound 6, naringenin]	0.017 ± 0.002 µmol trolox per µmol of tested	114 ± 18.6 µM
